≈ marks a conversion by molar mass, not a printed value.
Legend:
[1] = Hygroscopicity by DVS at 25° C.; format: physicochemical; conditions: for Desorp. (%) / Sorp. (%): DVS 25° C.
Procedure: Dynamic Vapor Sorption (DVS): DVS analysis was performed using Intrinsic. Analysis was performed using parameters as set forth below.
The hygroscopicity for Form C and Form F was examined. See, e.g., Table E.

[2] = Bulk stability under accelerated storage conditions (XRPD and HPLC); conditions: for Bulk (XRPD) / Purity, Bulk (HPLC): Solid state
Description: Solids obtained after bulk stability study were characterized by XRPD and HPLC.

[3] = Solubility study in aqueous media at 37° C. (HPLC of supernatants, pH); conditions: for solubility / solubility at 2 h / solubility at 24 h: 37 °C, thermodynamic from solid
Procedure: 2.01 mg of the free base Form C (equal to 2 mg free base after correction for water content) was weighed into 2 mL vial. 2.09 mg of the free base Form F (equal to 2 mg free base after correction for water content) was weighed into a 2 mL vial. I mL of aqueous media was added, respectively. These suspensions were stirred at 37° C. at a rate of 400 rpm. These suspensions were taken out after 2 h and 24 h, and then centrifuged at 14,000 rpm for 5 minutes. The supernatants were analyzed by HPLC. The pH of the supernatants were tested.

[4] = 25° C./92.5% RH in an open vial, 2 weeks
[5] = 25° C./92.5% RH in an open vial, 4 weeks
[6] = 40° C./75% RH in an open vial, 2 weeks
[7] = 40° C./75% RH in an open vial, 4 week
[8] = 60° C., tight container, 2 weeks
[9] = 60° C., tight container, 4 weeks
[10] = SGF, pH 2, simulated gastric fluid
[11] = pH 1.0 HCl solution (0.1N), pH 1, simulated gastric fluid
[12] = pH 4.5 acetate buffer (50 mM), pH 4.5, aqueous buffer
[13] = pH 6.8 phosphate buffer (50 mM), pH 6.8, aqueous buffer

SMILES: CN1C[C@H]2C[C@@]2(C#Cc2cc3ncnc(Nc4cccc(Cl)c4F)c3cc2NC(=O)/C=C/CN2CCOCC2)C1 [Form C]
- DVS water uptake at 90% RH ([1]; 25° C., dm/dt = 0.002%): 1.6% water uptake at 90% RH
- DVS water uptake at 95% RH ([1]; 25° C., dm/dt = 0.002%): 2.3% water uptake at 95% RH
- Desorp. (%) ([1]; Relative Humidity 0%, first Desorp.): 0.2%
- Sorp. (%) ([1]; Relative Humidity 0%, first Sorp.): 0.2%
- Desorp. (%) ([1]; Relative Humidity 0%, second Desorp.): 0.0%
- Sorp. (%) ([1]; Relative Humidity 0%, second Sorp.): 0.0%
- Desorp. (%) ([1]; Relative Humidity 10%, first Desorp.): 0.3%
- Sorp. (%) ([1]; Relative Humidity 10%, first Sorp.): 0.2%
- Desorp. (%) ([1]; Relative Humidity 10%, second Desorp.): 0.1%
- Sorp. (%) ([1]; Relative Humidity 10%, second Sorp.): 0.1%
- Desorp. (%) ([1]; Relative Humidity 20%, first Desorp.): 0.4%
- Sorp. (%) ([1]; Relative Humidity 20%, first Sorp.): 0.3%
- Desorp. (%) ([1]; Relative Humidity 20%, second Desorp.): 0.2%
- Sorp. (%) ([1]; Relative Humidity 20%, second Sorp.): 0.2%
- Desorp. (%) ([1]; Relative Humidity 30%, first Desorp.): 0.5%
- Sorp. (%) ([1]; Relative Humidity 30%, first Sorp.): 0.4%
- Desorp. (%) ([1]; Relative Humidity 30%, second Desorp.): 0.3%
- Sorp. (%) ([1]; Relative Humidity 30%, second Sorp.): 0.3%
- Desorp. (%) ([1]; Relative Humidity 40%, first Desorp.): 0.5%
- Sorp. (%) ([1]; Relative Humidity 40%, first Sorp.): 0.4%
- Desorp. (%) ([1]; Relative Humidity 40%, second Desorp.): 0.4%
- Sorp. (%) ([1]; Relative Humidity 40%, second Sorp.): 0.3%
- Sorp. (%) ([1]; Relative Humidity 50%, first Sorp.): 0.5%
- Desorp. (%) ([1]; Relative Humidity 50%, second Desorp.): 0.6%
- Sorp. (%) ([1]; Relative Humidity 60%, first Sorp.): 0.6%
- Desorp. (%) ([1]; Relative Humidity 60%, second Desorp.): 1.1%
- Sorp. (%) ([1]; Relative Humidity 70%, first Sorp.): 0.8%
- Desorp. (%) ([1]; Relative Humidity 70%, second Desorp.): 1.4%
- Sorp. (%) ([1]; Relative Humidity 80%, first Sorp.): 1.2%
- Desorp. (%) ([1]; Relative Humidity 80%, second Desorp.): 1.7%
- Sorp. (%) ([1]; Relative Humidity 90%, first Sorp.): 1.8%
- Desorp. (%) ([1]; Relative Humidity 90%, second Desorp.): 2.2%
- Sorp. (%) ([1]; Relative Humidity 95%, first Sorp.): 2.5%
- Desorp. (%) ([1]; Relative Humidity 95%, second Desorp.): 2.5%
- XRPD after DVS test ([1]; DVS at 25° C.): No form change
- HPLC area Purity ([2]; 1 Month, 5° C.): 98.2%
- Water content ([2]; 1 Month, 5° C.): 0.5%
- impurity RRT0.967 ([2]; 1 Month, 5° C.): 0.07%
- impurity RRT0.971 ([2]; 1 Month, 5° C.): 0.08%
- impurity RRT1.20 ([2]; 1 Month, 5° C.): 0.06%
- impurity RRT1.24 ([2]; 1 Month, 5° C.): 1.4%
- impurity RRT1.26 ([2]; 1 Month, 5° C.): 0.13%
- impurity RRT1.28 ([2]; 1 Month, 5° C.): 0.11%
- HPLC area Purity ([2]; 1 Month, 25° C./60% RH): 98.2
- Water content ([2]; 1 Month, 25° C./60% RH): 0.4%
- impurity RRT0.967 ([2]; 1 Month, 25° C./60% RH): 0.07%
- impurity RRT0.971 ([2]; 1 Month, 25° C./60% RH): 0.08%
- impurity RRT1.20 ([2]; 1 Month, 25° C./60% RH): 0.06%
- impurity RRT1.24 ([2]; 1 Month, 25° C./60% RH): 1.4%
- impurity RRT1.26 ([2]; 1 Month, 25° C./60% RH): 0.13%
- impurity RRT1.28 ([2]; 1 Month, 25° C./60% RH): 0.11%
- HPLC area Purity ([2]; 1 Month, 40° C./75% RH): 98.2%
- Water content ([2]; 1 Month, 40° C./75% RH): 0.7%
- impurity RRT0.967 ([2]; 1 Month, 40° C./75% RH): 0.08%
- impurity RRT0.971 ([2]; 1 Month, 40° C./75% RH): 0.08%
- impurity RRT1.20 ([2]; 1 Month, 40° C./75% RH): 0,07%
- impurity RRT1.24 ([2]; 1 Month, 40° C./75% RH): 1.4%
- impurity RRT1.26 ([2]; 1 Month, 40° C./75% RH): 0.13%
- impurity RRT1.28 ([2]; 1 Month, 40° C./75% RH): 0.11%
- HPLC area Purity ([2]; Initial): 98.1
- Water content ([2]; Initial): 0.4%
- impurity RRT0.967 ([2]; Initial): 0.09%
- impurity RRT0.971 ([2]; Initial): 0.06%
- impurity RRT1.20 ([2]; Initial): 0.06%
- impurity RRT1.24 ([2]; Initial): 1.4%
- impurity RRT1.26 ([2]; Initial): 0.13%
- impurity RRT1.28 ([2]; Initial): 0.12%
- impurity RrRT1.12 ([2]; Initial): 0.05%
- polymorph ([2]; Initial): Form C
- Bulk (XRPD) [2, 4]: No form change
- Purity, Bulk (HPLC) [2, 4]: 96.6%
- Bulk (XRPD) [2, 5]: No form change
- Purity, Bulk (HPLC) [2, 5]: 96.4%
- Bulk (XRPD) [2, 6]: No form change
- Purity, Bulk (HPLC) [2, 6]: 95.5%
- Bulk (XRPD) [2, 7]: No form change
- Purity, Bulk (HPLC) [2, 7]: 94.6%
- Bulk (XRPD) [2, 8]: No form change
- Purity, Bulk (HPLC) [2, 8]: 95.5%
- Bulk (XRPD) [2, 9]: No form change
- Purity, Bulk (HPLC) [2, 9]: 93.3%
- form change after bulk stability study (XRPD) ([2]; three accelerated conditions, two weeks and four weeks): do not change forms
- stability in FaSSIF-v1 ([3]; 37° C., FaSSIF-v1): degraded
- stability in FeSSIF-v1 ([3]; 37° C., FeSSIF-v1): degraded
- 2 h Solubility ([3]; FaSSIF-v1, pH 6.5, 37° C.): Degradation
- 24 h Solubility ([3]; FaSSIF-v1, pH 6.5, 37° C.): Degradation
- 2 h Solubility ([3]; FeSSIF-v1, pH 5.0, 37° C.): Degradation
- 24 h Solubility ([3]; FeSSIF-v1, pH 5.0, 37° C.): Degradation
- solubility [3, 10]: > 2000 µg/mL
- solubility at 2 h [3, 10]: > 2000 µg/mL
- solubility at 24 h [3, 10]: > 2000 µg/mL
- 24 h (pH) of supernatant ([3]; SGF, pH 2.0, 37° C.): pH 3.7
- 24 h (pH) of supernatant ([3]; Water, 37° C.): pH 7.4
- 24 h (pH) of supernatant ([3]; pH 1.0 (0.1N HCl), 37° C.): pH 1.0
- solubility at 2 h [3, 11]: > 2000 µg/mL
- solubility at 24 h [3, 11]: > 2000 µg/mL
- solubility ([3]; pH 1.0 HCl solution, pH 1, simulated gastric fluid): > 2000 µg/mL
- 24 h (pH) of supernatant ([3]; pH 4.5 (50 mM) acetate buffer, 37° C.): pH 4.5
- solubility [3, 12]: > 2000 µg/mL
- solubility at 2 h [3, 12]: 2000 µg/mL (≈ 3560 µM)
- solubility at 24 h [3, 12]: > 2000 µg/mL
- 24 h (pH) of supernatant ([3]; pH 6.8 (50 mM) phosphate buffer, 37° C.): pH 6.7
- solubility [3, 13]: ~20 µg/mL (≈ 35.6 µM)
- solubility at 2 h [3, 13]: 20.4 µg/mL (≈ 36.4 µM)
- solubility at 24 h [3, 13]: 16.5 µg/mL (≈ 29.4 µM)
- solubility ([3]; pure water, water): < 10 µg/mL
- solubility at 2 h ([3]; water): 1.6 µg/mL (≈ 2.85 µM)
- solubility at 24 h ([3]; water): 2 µg/mL (≈ 3.56 µM)
